15 molecules from article PMC8846325, “A Photoactivable Natural Product with Broad Antiviral Activity against Enveloped Viruses, Including Highly Pathogenic Coronaviruses” (Antimicrobial Agents and Chemotherapy, 2022) can be followed below.

Read-outs that look alike come from different tables or passages of the source.

Holding throughout (format): cell-based
One data set has as its system Huh-7 cells. Put plainly: MTS cell toxicity assay, Huh-7 cells. Particulars: for CC50: Huh-7 cells, 24 h, light exposure. On the procedure:
(§1) A total of 6 × 10^4 Huh-7, Vero-E6, and Vero-81 cells were seeded in 96-well plates and incubated for 16 h at 37°C in a 5% CO2 incubator. The cells were then treated with increasing concentrations of the compound of interest. One hour after inoculation, cells were taken out of the incubator to be exposed to the white light of a biosafety cabinet (BSC) for 10 min, after which cells were further incubated in the dark at 37°C and 5% CO2 for 23 h. The BSC’s light source lamp consists of one fluorescent tube of 36 W, 3,350 lumen, white light. An MTS [3-(4,5-dimethylthiazol-2-yl)-5-(3-carboxymethoxyphenyl)-2-(4-sulfophenyl)-2H-tetrazolium]-based viability assay (Cell Titer 96 aqueous nonradioactive cell proliferation assay; Promega) was performed as recommended by the manufacturer. The absorbance of formazan at 490 nm was detected using a plate reader (ELX 808 Bio-Tek Instruments Inc.). Each measure was performed in triplicate, and each experiment was repeated at least 3 times.
(§2) 6×104 Huh-7, Vero-E6 and Vero-81 cells were seeded in 96-well plates and incubated for 16 h at 37 °C 5% CO2 incubator. The cells were then treated with increasing concentrations of the compound of interest. One hour after inoculation, cells were either left in the incubator (dark condition) or taken out to be exposed to the white light of the biosafety cabinet (BSC) for 10 min (light condition), after which cells were further incubated in the dark at 37 °C 5% CO2 for 23 h. BSC’s light source lamp consists of one fluorescent tube of 36W, 3350 lumen white light. An MTS [3-(4,5-dimethylthiazol-2-yl)-5-(3-carboxymethoxyphenyl)-2-(4-sulfophenyl)- 2H-tetrazolium]-based viability assay (Cell Titer 96 Aqueous non-radioactive cell proliferation assay, Promega) was performed as recommended by the manufacturer. The absorbance of formazan at 490 nm was detected using a plate reader (ELX 808 Bio-Tek […]
(§3) Instruments Inc). […]
For orientation: Formazan colour is commonly taken as a measure of viable cells.

Data set [1] deals with HCoV-229E. Briefly: HCoV-229E-Luc infection inhibition luciferase assay. Particulars: for light dependence of antiviral effect: HCoV-229E, light versus dark; for antiviral activity against HCoV-229E-Luc, screening of related compounds: Huh-7 cells, 1, 5, 10 µM, light exposure.
Data set [2] can be described thus: MTS cell toxicity assay, Huh-7 cells. Particulars: human, Huh-7 cells, 24 h, light exposure; read-out: CC50 (μM) 24 h. On the procedure: as §1, §2, §3
For the next data set, the system named is SARS-CoV-2.
Data set [3] has as its system HCoV-229E. Put plainly: Quencher assay (singlet oxygen quenchers).
Setting [4] is: against HCoV-229E, Huh-7 cells, normal white light exposure, read-out: IC50.

One may read the CC50 as the concentration giving 50% cytotoxicity. For orientation: IC50 means the concentration needed to halve the response being measured.

As for HPPH, half-maximal cytotoxicity with Huh-7 cells (CC50) was put at 8.13 µM. Moreover, the “light dependence of antiviral effect” value in the data set with HCoV-229E [1] is recorded as “light-dependent antiviral effect”. Moreover, the IC50 at HCoV-229E [1] (setting [4]) worked out at 1.14 µM.

For `CCC1=C(C)c2cc3[nH]c(cc4nc(cc5c(CCC(=O)O)c(C)c(cc1n2)n5C)C(CCC(=O)O)=C4C)c(C)c3CC` [N-Methyl mesoporphyrin IX, N-methyl mesoporphyrin IX], the cytotoxic concentration (CC50) in the data set on Huh-7 cells is over 80 µM. The “light dependence of antiviral effect” value with HCoV-229E [1] is given as “light-dependent antiviral effect”. The “antiviral activity under dark conditions” value in the data set with HCoV-229E [1] (Huh-7 cells) was “showed antiviral activity under dark conditions”. The IC50 on HCoV-229E [1] (setting [4]) turned out to be 1.25 µM.

For `C=Cc1c(C)c2cc3nc(c4c5[nH]c(cc6nc(cc1[nH]2)C(C)=C6CC)c(C)c5C(=O)C4)[C@@H](CCC(=O)O)[C@@H]3C` [PyroPba, pyropheophorbide a], the “toxicity on Huh-7 cells, screening of related compounds” value with Huh-7 cells (5, 10, and 25 µM, light) is reported as “toxic at tested concentrations”. In addition, the half-maximal cytotoxic concentration (CC50) at 24 h in data set [2] is 2.67 µM. In the data set on HCoV-229E [1], the “light dependence of antiviral effect” value was “light-dependent antiviral effect”. Further, in the data set on HCoV-229E [1] (Human coronavirus 229E, Huh-7), the midpoint of inhibition, the IC50, lay at 0.35 µM.

With `C=Cc1c(C)c2cc3nc(c4c5[n-]c(cc6nc(cc1[n-]2)C(C=O)=C6CC)c(C)c5C(=O)[C@@H]4C(=O)OC)[C@@H](CCC(=O)OC/C=C(\C)CCC[C@H](C)CCC[C@H](C)CCCC(C)C)[C@@H]3C.[Mg+2]` [Chlorophyll b], the “antiviral activity against HCoV-229E-Luc, screening of related compounds” value (shortened to “antiviral activity against HCoV-229E-Luc”) in the data set on HCoV-229E [1] was “not active at the tested concentrations”.

For the molecule `Oc1cccc(-c2c3nc(c(-c4cccc(O)c4)c4ccc([nH]4)c(-c4cccc(O)c4)c4nc(c(-c5cccc(O)c5)c5ccc2[nH]5)CC4)C=C3)c1` [temoporfin], in the data set on HCoV-229E [1], the “antiviral activity against HCoV-229E-Luc” value is on record as “moderate antiviral activity”.

Consider `CCN(CC)CCCC(C)Nc1ccnc2cc(Cl)ccc12` (centres unmarked) [chloroquine, reference compound], for which, in the data set with SARS-CoV-2, the “infectivity relative to normal levels, compound added more than 2 h after inoculation” value is recorded as “around 60%”.

Take `[N-]=[N+]=[N-].[Na+]` [NaN3]: the “effect of quencher on antiviral action of Pba” value in the data set on HCoV-229E [3] is “able to reduce the action of Pba”.

Take N-methyl protoporphyrin IX: in the data set with Huh-7 cells, the CC50 was over 80 µM. The “light dependence of antiviral effect” value in the data set with HCoV-229E [1] is recorded as “light-dependent antiviral effect”. Moreover, in the data set on HCoV-229E [1] (Huh-7 cells), the “antiviral activity under dark conditions” value is given as “showed antiviral activity under dark conditions”. Further, the half-maximal inhibitory concentration (IC50) on HCoV-229E [1] (setting [4]) was 1.21 µM.

As to `C1=Cc2nc1cc1ccc([nH]1)c(-c1ccccc1)c1nc(cc3ccc([nH]3)c2-c2ccccc2)C=C1` [5,15-DPP], the “antiviral activity against HCoV-229E-Luc” value with HCoV-229E [1] is listed as “not active at the tested concentrations”.

With `c1ccc2c(c1)-c1nc-2nc2[nH]c(nc3nc(nc4[nH]c(n1)c1ccccc41)-c1ccccc1-3)c1ccccc21` [phthalocyanine], in the data set with HCoV-229E [1], the “antiviral activity against HCoV-229E-Luc” value was “not active at the tested concentrations”.

`C=CC1=C(C)c2cc3[n-]c(cc4[n-]c(cc5nc(cc1n2)C(C)=C5C=C)c(C)c4CCC(=O)O)c(CCC(=O)O)c3C.[Zn+2]` [Zn protoporphyrin IX, Zn-protoporphyrin IX] came in with a half-maximal cytotoxic concentration (CC50) with Huh-7 cells of 16.6 µM. In the data set with HCoV-229E [1], the “light dependence of antiviral effect” value is on record as “light-dependent antiviral effect”. For the same molecule, the half-maximal inhibitory concentration (IC50) on HCoV-229E [1] (setting [4]) is 0.79 µM.

Take `C=Cc1c(C)c2cc3nc(c(CC(=O)O)c4[nH]c(cc5nc(cc1[nH]2)C(C)=C5CC)c(C)c4C(=O)O)[C@@H](CCC(=O)O)[C@@H]3C` [Chlorin e6, chlorin e6]: the cytotoxic concentration (CC50) at 24 h in data set [2] came to 21.4 µM. Further, the “light dependence of antiviral effect” value with HCoV-229E [1] is reported as “light-dependent antiviral effect”. The molecule also displayed a half-maximal inhibitory concentration (IC50) in the data set with HCoV-229E [1] (Human coronavirus 229E, Huh-7) of 0.72 µM.

As for hemin chloride, in the data set on HCoV-229E [1], the “antiviral activity against HCoV-229E-Luc” value is listed as “moderate antiviral activity”.

As for `Cc1c(C)c2c(c(C)c1O)CCC(C)(C(=O)O)O2` (centres unmarked) [Trolox], in the data set on HCoV-229E [3] (quencher 10 mM, Pba 0.5 or 1 μM), the “effect of quencher on antiviral action of Pba” value is given as “able to reduce the action of Pba”.

In turn, `O=C1OC2(c3cc(I)c(O)c(I)c3Oc3c2cc(I)c(O)c3I)c2c(Cl)c(Cl)c(Cl)c(Cl)c21` [Rose Bengale] had a 50% cytotoxic concentration (CC50) in the data set on Huh-7 cells of over 80 µM. The “antiviral activity against HCoV-229E-Luc” value in the data set with HCoV-229E [1] was “moderate antiviral activity”. At HCoV-229E [1] (setting [4]), the IC50 stood at 2.86 µM.
